Source: the NIST ThermoML archive (doi:10.1007/s10765-012-1185-1)

Settings: Gas

[C-]#[O+] [carbon monoxide]
Settings | viscosity [mPa·s]
288.72 K, Mass density=0.52 kg/m3 | 0.01732
288.91 K, Mass density=0.78 kg/m3 | 0.01733
292.39 K, Mass density=0.52 kg/m3 | 0.0175
296.53 K, Mass density=0.78 kg/m3 | 0.0177
296.67 K, Mass density=0.78 kg/m3 | 0.0177
296.74 K, Mass density=0.52 kg/m3 | 0.01769
296.81 K, Mass density=0.52 kg/m3 | 0.0177
297.19 K, Mass density=0.52 kg/m3 | 0.01771
298.54 K, Mass density=0.52 kg/m3 | 0.01778
298.58 K, Mass density=0.52 kg/m3 | 0.01778
299.09 K, Mass density=0.52 kg/m3 | 0.0178
299.27 K, Mass density=0.52 kg/m3 | 0.01781
323.27 K, Mass density=0.78 kg/m3 | 0.0189
323.95 K, Mass density=0.52 kg/m3 | 0.01894
349.98 K, Mass density=0.78 kg/m3 | 0.02007
350.09 K, Mass density=0.52 kg/m3 | 0.02007
377.57 K, Mass density=0.78 kg/m3 | 0.02123
377.81 K, Mass density=0.52 kg/m3 | 0.02123
405.3 K, Mass density=0.78 kg/m3 | 0.02235
405.55 K, Mass density=0.52 kg/m3 | 0.02236
433.29 K, Mass density=0.78 kg/m3 | 0.02345
433.45 K, Mass density=0.52 kg/m3 | 0.02345
461.39 K, Mass density=0.78 kg/m3 | 0.02452
461.45 K, Mass density=0.52 kg/m3 | 0.02451
489.68 K, Mass density=0.78 kg/m3 | 0.02558
489.81 K, Mass density=0.52 kg/m3 | 0.02557
518.13 K, Mass density=0.78 kg/m3 | 0.02659
518.44 K, Mass density=0.52 kg/m3 | 0.0266
542.05 K, Mass density=0.52 kg/m3 | 0.02744
542.09 K, Mass density=0.78 kg/m3 | 0.02744
564.73 K, Mass density=0.78 kg/m3 | 0.02822
593.37 K, Mass density=0.52 kg/m3 | 0.02919
593.52 K, Mass density=0.78 kg/m3 | 0.0292
622.5 K, Mass density=0.52 kg/m3 | 0.03015
622.67 K, Mass density=0.78 kg/m3 | 0.03016
651.51 K, Mass density=0.78 kg/m3 | 0.0311
651.68 K, Mass density=0.52 kg/m3 | 0.0311
680.94 K, Mass density=0.78 kg/m3 | 0.03203
681.07 K, Mass density=0.52 kg/m3 | 0.03203

N#N [nitrogen]
Mass density=0.72 kg/m3
Settings | viscosity [mPa·s]
291.55 K | 0.01747
294.73 K | 0.01762
296.88 K | 0.01771
324 K | 0.01894
350.42 K | 0.02009
378.04 K | 0.02125
405.75 K | 0.02237
433.79 K | 0.02347
461.81 K | 0.02453
490.21 K | 0.02559
518.59 K | 0.02661
542.47 K | 0.02747
565.16 K | 0.02825
594.04 K | 0.02922
623.22 K | 0.0302
652.36 K | 0.03114
681.99 K | 0.03209
